# *1 amine or outer side, *2 acyl side, *3 side chain or, on linkers, in order; H or OH if unused. Where a SMILES comes first, the peptide text is derived from it. Bridges are numbered along the chain shown (N, C = ends). Roman numbers before positions name the chains, in order. Side-chain parts run from the residue outwards. [ ]: non-standard residue; d: D form. The star is where a group is joined. C18 diacid = O=C(O)CCCCCCCCCCCCCCCCC(=O)*; γGlu = O=C(O)[C@H](CCC(=O)[*:2])N[*:1]; Desaminohistidyl = O=C(CCc1c[nH]cn1)*; Ac4c = NC1(C(=O)O)CCC1; AEEA = NCCOCCOCC(=O)O; Aib = CC(C)(N)C(=O)O
# Key:
# [1] = target: T1, human GLP-1 receptor (Homo sapiens, UniProt P43220); assay: Assay (I)(a): GLP-1 receptor potency, CRE luciferase reporter gene assay in BHK cells; type: cell-based; conditions: BHK cells expressing human GLP-1 receptor, read-out: EC50 GLP-1R
# T1 construct: expressed in transfected cells; host or cells: membranes of BHK cells, parent line BHKTS13, clone FCW467-12A
# Summary of the method: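 BHK cells (clone FCW467-12A/KZ10-1), 5×10EE3/well, exposed 3 h at 37° C to compound at 1×10EE-13 to 1×10EE-6 M final in medium with 2% ovalbumin and 0.2% Pluronic F-68. Luciferase luminescence read; EC50 (pM) from four-parameter fit.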
# [2] = Assay (V): chemical stability assessment by RP-UPLC; type: physicochemical; conditions: 14 days at 37° C. in phosphate buffer (pH 7.3)
# Summary of the method: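 Lyophilized peptide dissolved in 8 mM phosphate pH 8.6, adjusted to pH 7.3, final 333 μM, held 14 days at 5° C and 37° C. Purity is main-peak area % by RP-UPLC with UV detection at 215 nm. Degradation is the 5° C minus 37° C purity difference divided by the 5° C purity.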
# T1 sequence (P43220 24-463): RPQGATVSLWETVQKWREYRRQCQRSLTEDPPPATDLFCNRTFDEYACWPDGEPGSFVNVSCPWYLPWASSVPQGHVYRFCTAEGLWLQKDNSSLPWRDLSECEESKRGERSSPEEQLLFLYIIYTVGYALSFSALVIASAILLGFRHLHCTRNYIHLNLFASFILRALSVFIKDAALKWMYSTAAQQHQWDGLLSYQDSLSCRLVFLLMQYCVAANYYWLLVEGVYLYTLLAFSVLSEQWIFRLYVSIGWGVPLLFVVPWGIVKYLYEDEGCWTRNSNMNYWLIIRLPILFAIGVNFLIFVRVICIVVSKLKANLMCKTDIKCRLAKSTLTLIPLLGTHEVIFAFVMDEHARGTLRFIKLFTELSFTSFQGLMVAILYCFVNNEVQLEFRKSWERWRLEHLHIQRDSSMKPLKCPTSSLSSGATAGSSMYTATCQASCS
EC50 [1],Chemical stability: Chemical degradation over 14 days at 37° C. [2],Compound
6 pM,4.4%,"CC[C@H](C)[C@H](NC(=O)[C@H](Cc1ccccc1)NC(=O)[C@H](CCC(=O)O)NC(=O)[C@H](CCCNC(=N)N)NC(=O)[C@H](C)NC(=O)[C@H](C)NC(=O)[C@H](CCC(N)=O)NC(=O)[C@H](CCC(=O)O)NC(=O)[C@H](CCC(=O)O)NC(=O)[C@H](CC(C)C)NC(=O)[C@H](Cc1ccc(O)cc1)NC(=O)[C@H](CCCCN)NC(=O)[C@H](CO)NC(=O)[C@@H](NC(=O)[C@H](CC(=O)O)NC(=O)[C@H](CO)NC(=O)[C@@H](NC(=O)[C@H](Cc1ccccc1)NC(=O)[C@@H](NC(=O)CNC(=O)[C@H](Cc1c[nH]cn1)NC(=O)C(C)(C)NC(=O)CCc1c[nH]cn1)[C@@H](C)O)[C@@H](C)O)C(C)C)C(=O)N[C@@H](C)C(=O)N[C@@H](Cc1c[nH]c2ccccc12)C(=O)N[C@@H](CC(C)C)C(=O)N[C@@H](CC(C)C)C(=O)N[C@@H](CCCCNC(=O)COCCOCCNC(=O)COCCOCCNC(=O)CC[C@H](NC(=O)CCCCCCCCCCCCCCCCC(=O)O)C(=O)O)C(=O)N[C@H](C(N)=O)[C@@H](C)O [Example 12, N^ε34-[2-[2-[2-[[2-[2-[2-[[(4S)-4-carboxy-4-(17-carboxyheptadecanoylamino)butanoyl]amino]ethoxy]ethoxy]acetyl]amino]ethoxy]ethoxy]acetyl]-[Imp7,Aib8,His9,Lys18,Glu22,Arg26,Leu33,Thr35]-GLP-1-(7-35)-peptide amide] (Desaminohistidyl-[Aib]HGTFTSDVSKYLEEQAAREFIAWLLK([AEEA-AEEA-γGlu-C18 diacid])T-NH2)"
5 pM,0.2%,"CC[C@H](C)[C@H](NC(=O)[C@H](Cc1ccccc1)NC(=O)[C@H](CCC(=O)O)NC(=O)[C@H](CCCNC(=N)N)NC(=O)[C@H](C)NC(=O)[C@H](C)NC(=O)[C@H](CCC(N)=O)NC(=O)[C@H](CCC(=O)O)NC(=O)[C@H](CCC(=O)O)NC(=O)[C@H](CC(C)C)NC(=O)[C@H](Cc1ccc(O)cc1)NC(=O)[C@H](CCCCN)NC(=O)[C@H](CO)NC(=O)[C@@H](NC(=O)[C@H](CC(=O)O)NC(=O)[C@H](CO)NC(=O)[C@@H](NC(=O)[C@H](Cc1ccccc1)NC(=O)[C@@H](NC(=O)CNC(=O)[C@H](Cc1c[nH]cn1)NC(=O)C1(NC(=O)CCc2c[nH]cn2)CCC1)[C@@H](C)O)[C@@H](C)O)C(C)C)C(=O)N[C@@H](C)C(=O)N[C@@H](Cc1c[nH]c2ccccc12)C(=O)N[C@@H](CC(C)C)C(=O)N[C@@H](CC(C)C)C(=O)N[C@@H](CCCCNC(=O)CNC(=O)[C@H](CO)NC(=O)[C@H](CCC(=O)O)NC(=O)CNC(=O)[C@H](CO)NC(=O)CC[C@H](NC(=O)CC[C@H](NC(=O)CCCCCCCCCCCCCCCCC(=O)O)C(=O)O)C(=O)O)C(=O)N[C@H](C(N)=O)[C@@H](C)O [Example 9, N^ε34-[2-[[(2S)-2-[[(2S)-4-carboxy-2-[[2-[[(2S)-2-[[(4S)-4-carboxy-4-[[(4S)-4-carboxy-4-(17-carboxyheptadecanoylamino)butanoyl]amino]butanoyl]amino]-3-hydroxypropanoyl]amino]acetyl]amino]butanoyl]amino]-3-hydroxypropanoyl]amino]acetyl]-[Imp7,Acb8,His9,Lys18,Glu22,Arg26,Leu33,Thr35]-GLP-1-(7-35)-peptide amide] (I: Desaminohistidyl-[Ac4c]HGTFTSDVSKYLEEQAAREFIAWLLKT-NH2 / II: {C18 diacid-γGlu-γGlu}-SGESG; amide I:27-II:C)"
5 pM,−0.3%,"CC[C@H](C)[C@H](NC(=O)[C@H](Cc1ccccc1)NC(=O)[C@H](CCC(=O)O)NC(=O)[C@H](CCCNC(=N)N)NC(=O)[C@H](C)NC(=O)[C@H](C)NC(=O)[C@H](CCC(N)=O)NC(=O)[C@H](CCC(=O)O)NC(=O)[C@H](CCC(=O)O)NC(=O)[C@H](CC(C)C)NC(=O)[C@H](Cc1ccc(O)cc1)NC(=O)[C@H](CCCCN)NC(=O)[C@H](CO)NC(=O)[C@@H](NC(=O)[C@H](CC(=O)O)NC(=O)[C@H](CO)NC(=O)[C@@H](NC(=O)[C@H](Cc1ccccc1)NC(=O)[C@@H](NC(=O)CNC(=O)[C@H](Cc1c[nH]cn1)NC(=O)C(C)(C)NC(=O)CCc1c[nH]cn1)[C@@H](C)O)[C@@H](C)O)C(C)C)C(=O)N[C@@H](C)C(=O)N[C@@H](Cc1c[nH]c2ccccc12)C(=O)N[C@@H](CC(C)C)C(=O)N[C@@H](CC(C)C)C(=O)N[C@@H](CCCCNC(=O)CNC(=O)[C@H](CO)NC(=O)[C@H](CCC(=O)O)NC(=O)CNC(=O)[C@H](CO)NC(=O)CC[C@H](NC(=O)CC[C@H](NC(=O)CCCCCCCCCCCCCCCCC(=O)O)C(=O)O)C(=O)O)C(=O)N[C@H](C(N)=O)[C@@H](C)O [Example 3, N^ε34-[2-[[(2S)-2-[[(2S)-4-carboxy-2-[[2-[[(2S)-2-[[(4S)-4-carboxy-4-[[(4S)-4-carboxy-4-(17-carboxyheptadecanoylamino)butanoyl]amino]butanoyl]amino]-3-hydroxypropanoyl]amino]acetyl]amino]butanoyl]amino]-3-hydroxypropanoyl]amino]acetyl]-[Imp7,Aib8,His9,Lys18,Glu22,Arg26,Leu33,Thr35]-GLP-1-(7-35)-peptide amide] (I: Desaminohistidyl-[Aib]HGTFTSDVSKYLEEQAAREFIAWLLKT-NH2 / II: {C18 diacid-γGlu-γGlu}-SGESG; amide I:27-II:C)"
7 pM,0.1%,"CC[C@H](C)[C@H](NC(=O)[C@H](Cc1ccccc1)NC(=O)[C@H](CCC(=O)O)NC(=O)[C@H](CCCNC(=N)N)NC(=O)[C@H](C)NC(=O)[C@H](C)NC(=O)[C@H](CCC(N)=O)NC(=O)[C@H](CCC(=O)O)NC(=O)[C@H](CCC(=O)O)NC(=O)[C@H](CC(C)C)NC(=O)[C@H](Cc1ccc(O)cc1)NC(=O)[C@H](CCCCN)NC(=O)[C@H](CO)NC(=O)[C@@H](NC(=O)[C@H](CC(=O)O)NC(=O)[C@H](CO)NC(=O)[C@@H](NC(=O)[C@H](Cc1ccccc1)NC(=O)[C@@H](NC(=O)CNC(=O)[C@H](Cc1c[nH]cn1)NC(=O)C(C)(C)NC(=O)CCc1c[nH]cn1)[C@@H](C)O)[C@@H](C)O)C(C)C)C(=O)N[C@@H](C)C(=O)N[C@@H](Cc1c[nH]c2ccccc12)C(=O)N[C@@H](CC(C)C)C(=O)N[C@@H](CC(C)C)C(=O)N[C@@H](CCCCNC(=O)CC[C@H](NC(=O)CC[C@H](NC(=O)CC[C@H](NC(=O)CC[C@H](NC(=O)CCCCCCCCCCCCCCCCC(=O)O)C(=O)O)C(=O)O)C(=O)O)C(=O)O)C(=O)N[C@H](C(N)=O)[C@@H](C)O [Example 6, N^ε34-[(4S)-4-carboxy-4-[[(4S)-4-carboxy-4-[[(4S)-4-carboxy-4-[[(4S)-4-carboxy-4-(17-carboxyheptadecanoylamino)butanoyl]amino]butanoyl]amino]butanoyl]amino]butanoyl]-[Imp7,Aib8,His9,Lys18,Glu22,Arg26,Leu33,Thr35]-GLP-1-(7-35)-peptide amide] (Desaminohistidyl-[Aib]HGTFTSDVSKYLEEQAAREFIAWLLK([γGlu-γGlu-γGlu-γGlu-C18 diacid])T-NH2)"

# — patent publication US9988430B2, “Stable GLP-1 based GLP-1/glucagon receptor co-agonists” (Novo Nordisk A/S, priority 2014, dated 2018)
